“And” between values parts separate entries of the source, which are not always exact repeats. Equal entries are not always repeated. Toxic doses and inconclusive results are not listed. Rule as the data show it: active = T/C of 150% or more; inactive = T/C below 125%. Square brackets hold non-standard residues; d marks the D form. Peptide text beside a SMILES is read from it. * marks the point of attachment. ξ: configuration not given here. Boc = CC(C)(C)OC(=O)*; ξP = O=C(O)C1CCCN1
System: L1210 leukemia ip in BDF1 mice, survival T/C
Experiment: NCI In Vivo Anticancer Drug Screen. Data for tumor model L1210 Leukemia (intraperitoneal) in B6D2F1 (BDF1) mice
Conditions: endpoint: mean survival time, higher = longer survival
Description: The antitumor activity of compounds was measured in mice bearing transplantable tumors. Survival or tumor size were measured and the results are expressed as the measurement made in the treated group (T) divided by the measurement made in the vehicle treated control group (C). The tumor model used in this assay is L1210 Leukemia (intraperitoneal) in B6D2F1 (BDF1) mice

[1] = dose: 100.0 mg/kg/injection, schedule: Q01DX009 (ip), vehicle: saline with Tween-80
[2] = dose: 100.0 mg/kg/injection, schedule: Q04DX002 (ip), vehicle: saline with Tween-80
[3] = dose: 100.0 mg/kg/injection, schedule: Q04DX003 (ip), vehicle: saline with Tween-80
[4] = dose: 200.0 mg/kg/injection, schedule: Q01DX009 (ip), vehicle: saline with Tween-80
[5] = dose: 200.0 mg/kg/injection, schedule: Q04DX002 (ip), vehicle: saline with Tween-80
[6] = dose: 200.0 mg/kg/injection, schedule: Q04DX003 (ip), vehicle: saline with Tween-80
[7] = dose: 400.0 mg/kg/injection, schedule: Q01DX009 (ip), vehicle: saline with Tween-80
[8] = dose: 400.0 mg/kg/injection, schedule: Q04DX002 (ip), vehicle: saline with Tween-80
[9] = dose: 400.0 mg/kg/injection, schedule: Q04DX003 (ip), vehicle: saline with Tween-80
[10] = dose: 100.0 mg/kg/injection, schedule: Q01DX001 (ip), vehicle: saline
[11] = dose: 100.0 mg/kg/injection, schedule: Q01DX001 (ip), vehicle: carboxymethylcellulose (CMC)
[12] = dose: 200.0 mg/kg/injection, schedule: Q01DX001 (ip), vehicle: carboxymethylcellulose (CMC)
[13] = dose: 400.0 mg/kg/injection, schedule: Q01DX001 (ip), vehicle: carboxymethylcellulose (CMC)
[14] = dose: 100.0 mg/kg/injection, schedule: Q01DX009 (ip), vehicle: Klucel (hydroxypropylcellulose) (HPC)
[15] = dose: 200.0 mg/kg/injection, schedule: Q01DX009 (ip), vehicle: Klucel (hydroxypropylcellulose) (HPC)
[16] = dose: 400.0 mg/kg/injection, schedule: Q01DX009 (ip), vehicle: Klucel (hydroxypropylcellulose) (HPC)
[17] = dose: 200.0 mg/kg/injection, schedule: Q01DX001 (ip), vehicle: saline
[18] = dose: 400.0 mg/kg/injection, schedule: Q01DX001 (ip), vehicle: saline

Measured: T/C

O=C(Nc1ccc2ccccc2c1)c1ccc(Cl)cc1
inactive: [1] 104 % of control and 92 % of control | [2] 94 % of control and 97 % of control | [3] 97 % of control | [4] 97 % of control and 98 % of control | [5] 100 % of control and 101 % of control | [6] 101 % of control | [7] 95 % of control and 111 % of control | [8] 89 % of control and 90 % of control | [9] 97 % of control

COc1ccc2c(c1)N(CCCN(C)C)c1ccccc1S2
inactive: dose: 4.68 mg/kg/injection, schedule: Q01DX009 (ip), vehicle: saline 118 % of control | dose: 9.37 mg/kg/injection, schedule: Q01DX009 (ip), vehicle: saline 115 % of control | dose: 18.75 mg/kg/injection, schedule: Q01DX009 (ip), vehicle: saline 115 % of control | dose: 18.75 mg/kg/injection, schedule: Q04DX003 (ip), vehicle: saline 104 % of control | dose: 37.5 mg/kg/injection, schedule: Q01DX009 (ip), vehicle: saline 118 % of control | dose: 37.5 mg/kg/injection, schedule: Q04DX003 (ip), vehicle: saline 114 % of control | dose: 75.0 mg/kg/injection, schedule: Q01DX009 (ip), vehicle: saline 95 % of control | dose: 75.0 mg/kg/injection, schedule: Q04DX003 (ip), vehicle: saline 121 % of control

COC(=O)CNC(=O)C1CCCN1C(=O)OC(C)(C)C (stereo unspecified) (Boc-[ξP]-Gly-OMe)
inactive: [1] 100 % of control | [4] 100 % of control | [7] 90 % of control

O=C(NC(=S)Nc1ccc2c(c1)C(=O)c1ccccc1C2=O)c1cccc(Br)c1
inactive: dose: 50.0 mg/kg/injection, schedule: Q01DX009 (ip), vehicle: saline with Tween-80 98 % of control | dose: 100.0 mg/kg/injection, schedule: Q01DX001 (ip), vehicle: saline with Tween-80 96 % of control | [1] 98 % of control and 92 % of control | [2] 96 % of control and 97 % of control | dose: 200.0 mg/kg/injection, schedule: Q01DX001 (ip), vehicle: saline with Tween-80 93 % of control | [4] 97 % of control and 98 % of control | [5] 94 % of control and 103 % of control | dose: 400.0 mg/kg/injection, schedule: Q01DX001 (ip), vehicle: saline with Tween-80 103 % of control | [8] 96 % of control and 97 % of control

CC(=O)NC(CSSCC(NC(C)=O)C(=O)OC(C)=O)C(=O)O (stereo unspecified)
inactive: dose: 25.0 mg/kg/injection, schedule: Q01DX001 (ip), vehicle: saline 102 % of control | dose: 50.0 mg/kg/injection, schedule: Q01DX001 (ip), vehicle: saline 96 % of control | [10] 93 % of control

CC1(C)CCC2(C(=O)O)CCC3=C(C(CCl)CC4C3(C)CCC3C4(C)CC(O)C(O)C3(C)C(=O)O)C2C1 (stereo unspecified)
inactive: dose: 25.0 mg/kg/injection, schedule: Q01DX Z (ip), vehicle: carboxymethylcellulose (CMC) 96 % of control | dose: 50.0 mg/kg/injection, schedule: Q01DX Z (ip), vehicle: carboxymethylcellulose (CMC) 91 % of control | dose: 75.0 mg/kg/injection, schedule: Q01DX Z (ip), vehicle: carboxymethylcellulose (CMC) 97 % of control | dose: 125.0 mg/kg/injection, schedule: Q01DX Z (ip), vehicle: carboxymethylcellulose (CMC) 94 % of control

CCOC1=C(Br)C=CN(S(=O)(=O)c2ccc(C)cc2)c2ccccc21
inactive: dose: 100.0 mg/kg/injection, schedule: Q01DX009 (ip), vehicle: saline 97 % of control | dose: 200.0 mg/kg/injection, schedule: Q01DX009 (ip), vehicle: saline 94 % of control | dose: 400.0 mg/kg/injection, schedule: Q01DX009 (ip), vehicle: saline 93 % of control

CC1([N+](=O)[O-])COP(=O)(Nc2ccc(Cl)cc2)OC1 (stereo unspecified)
inactive: [11] 95 % of control | [12] 93 % of control | [13] 98 % of control

COc1cc(/C=C/C(=O)c2ccc3c(c2)OCO3)ccc1OCc1ccccc1
inactive: dose: 100.0 mg/kg/injection, schedule: Q04DX003 (ip), vehicle: water 93 % of control | dose: 200.0 mg/kg/injection, schedule: Q04DX003 (ip), vehicle: water 91 % of control | dose: 400.0 mg/kg/injection, schedule: Q04DX003 (ip), vehicle: water 93 % of control

COC(=O)CCC1CCC(=O)C1 (stereo unspecified)
inactive: dose: 37.5 mg/kg/injection, schedule: Q04DX002 (ip), vehicle: saline with Tween-80 95 % of control | dose: 75.0 mg/kg/injection, schedule: Q04DX002 (ip), vehicle: saline with Tween-80 95 % of control | dose: 150.0 mg/kg/injection, schedule: Q04DX002 (ip), vehicle: saline with Tween-80 98 % of control | dose: 300.0 mg/kg/injection, schedule: Q04DX002 (ip), vehicle: saline with Tween-80 95 % of control

CCC(N)C(O)C(Cl)(Cl)Cl (stereo unspecified)
inactive: [1] 103 % of control | [3] 89 % of control | [4] 98 % of control | [7] 109 % of control

CN(CC(=O)O)C(=N)N
inactive: [11] 92 % of control | [12] 94 % of control | dose: 250.0 mg/kg/injection, schedule: Q01DX Z (ip), vehicle: saline 94 % of control | [13] 97 % of control | dose: 500.0 mg/kg/injection, schedule: Q01DX Z (ip), vehicle: saline 104 % of control | dose: 1000.0 mg/kg/injection, schedule: Q01DX Z (ip), vehicle: saline 107 % of control | dose: 1500.0 mg/kg/injection, schedule: Q#A X Z (ip), vehicle: water 117 % of control | dose: 2500.0 mg/kg/injection, schedule: Q#A X Z (ip), vehicle: water 95 % of control

COc1ccc(OC(=O)OCc2ccc(OC)c(OC)c2)cc1
inactive: [3] 102 % of control | [6] 96 % of control | [9] 96 % of control

Cc1cc(/C=N/NC(=O)c2ccccc2NC(=O)c2ccccc2Cl)ccc1O
inactive: [14] 88 % of control | [15] 92 % of control | [16] 86 % of control

CCOC(CC)OCC
inactive: [10] 97 % of control | [17] 103 % of control | [18] 94 % of control

O=C(NC1CCCCC1)NC1CCCCC1
inactive: [1] 95 % of control | [4] 88 % of control | [7] 87 % of control

CC(C)(C)c1cc(C(=S)N2CCOCC2)cc(C(C)(C)C)c1O
inactive: dose: 100.0 mg/kg/injection, schedule: Q01DX001 (ip), vehicle: Klucel (hydroxypropylcellulose) (HPC) 103 % of control | dose: 200.0 mg/kg/injection, schedule: Q01DX001 (ip), vehicle: Klucel (hydroxypropylcellulose) (HPC) 100 % of control | dose: 400.0 mg/kg/injection, schedule: Q01DX001 (ip), vehicle: Klucel (hydroxypropylcellulose) (HPC) 86 % of control

CCCCCCCCCCCCCCCCCC(=O)N/N=C/c1cccc([N+](=O)[O-])c1
inactive: [14] 94 % of control | [15] 96 % of control | [16] 88 % of control

O=S(=O)(/N=C1/c2ccccc2/C(=N/S(=O)(=O)c2ccccc2)C2CC=CCC12)c1ccccc1 (stereo unspecified)
inactive: dose: 25.0 mg/kg/injection, schedule: Q01DX001 (ip), vehicle: saline sonified 94 % of control | dose: 50.0 mg/kg/injection, schedule: Q01DX001 (ip), vehicle: saline sonified 95 % of control | dose: 100.0 mg/kg/injection, schedule: Q01DX001 (ip), vehicle: saline sonified 92 % of control

Cn1nnc(C(N)=O)n1
inactive: [10] 93 % of control | [17] 98 % of control | [18] 94 % of control

C[C@]12CCC(=O)C=C1CC[C@@H]1[C@@H]2[C@@H](O)C[C@@]2(C)[C@H]1CC[C@]2(O)C(=O)CF
inactive: dose: 50.0 mg/kg/injection, schedule: Q01DX Z (sc), vehicle: steriod suspending solution 106 % of control | dose: 250.0 mg/kg/injection, schedule: Q01DX Z (sc), vehicle: steriod suspending solution 104 % of control | dose: 500.0 mg/kg/injection, schedule: Q01DX Z (sc), vehicle: steriod suspending solution 107 % of control

COC(=N)c1ccc2c(c1)OCO2
inactive: dose: 100.0 mg/kg/injection, schedule: Q04DX003 (ip), vehicle: saline 94 % of control | dose: 200.0 mg/kg/injection, schedule: Q04DX003 (ip), vehicle: saline 94 % of control | dose: 400.0 mg/kg/injection, schedule: Q04DX003 (ip), vehicle: saline 100 % of control

Reference: PubChem BioAssay AID248 (DTP/NCI, 2004)
